Data set [1] can be described thus: Electrophoretic mobility (ue) measurements as a function of pH. In kind it is physicochemical. As for the experimental part: Electrophoretic mobility (ue) measurements were performed in a Malvern Zetasizer 2000 apparatus (Malvern Instruments, England) at room temperature. Measurements were carried out 24 hours after the preparation of the suspensions, and the pH was readjusted immediately before the mobility was measured. In FIG. 1. electrophoretic mobility as a function of the pH of the gold nanoparticles, creatine, gold-creatine composite particles, and albumin are shown. As observed, the gold nanoparticles present a negative electrophoretic mobility (ue) over the whole range of pH, characteristic of the citrate molecules adsorbed on them, becoming more negative with pH increase. […] On the contrary, albumin molecules present an isoelectric point between pH 4.5-5, becoming more negative with pH increase.

The conditions of data set [2]: albumin alone; stated without own test; cited from earlier work.

In the case of `CN(CC(=O)O)C(=N)N` [Creatine], the figures for the “electrophoretic mobility (ue)” value in data set [1] (acidic conditions) and in data set [1] (whole range of pH) were “very close to zero” and “negative”, respectively.
In the case of albumin, the isoelectric point in data set [1] is reported as 4.5-5 pH. Moreover, the “crossing of the blood brain barrier” value in data set [2] is “not able to cross the blood brain barrier”.

Values taken from US20110111040A1, “POLYELECTROLYTE-ENCAPSULATED GOLD NANOPARTICLES CAPABLE OF CROSSING BLOOD-BRAIN BARRIER” (priority 2008, published 2011).
